According to ChEMBL document CHEMBL1137267, “Novel aminobenzimidazoles as selective MCH-R1 antagonists for the treatment of metabolic diseases” (Bioorg Med Chem Lett, 2006):
Activity calls are given as the source filed them. The rule behind the calls is not given here.

Legend:
[1] = target: T1, Melanin-concentrating hormone receptor 1 (Homo sapiens, UniProt Q99705); test: Binding activity against human MCH-R1
[2] = target: Melanin-concentrating hormone receptor 2 (Homo sapiens) (UniProt Q969V1); test: Binding activity against human MCH-R2
Mus musculus [3] = test: Inhibition of ex vivo MCH-ADO binding in mice 6 hours after 30mg/kg peroral dose; type: functional; conditions: po
Mus musculus [4] = test: Inhibition of ex vivo MCH-ADO binding in mice 24 hours after 30 mg/kg peroral dose; type: functional; conditions: route oral
[5] = AUC in rats following 10 mg/kg peroral dose; type: ADME, organism-based; parameters: dose 10 mg/kg, route oral; conditions: rat, plasma, po
[6] = target: T1, Melanin-concentrating hormone receptor 1; test: Inhibition of MCH-mediated calcium influx into CHO cells expressing human MCH-R1by FLIPR assay; type: functional, cell-based
Mus musculus [7] = species: Mus musculus; test: Inhibition of cumulative food intake by fasted DIO mice at 2 hours; type: functional
Mus musculus [8] = species: Mus musculus; test: Inhibition of cumulative food intake by fasted DIO mice at 4 hours; type: functional
Mus musculus [9] = species: Mus musculus; test: Inhibition of cumulative food intake by fasted DIO mice at 6 hours; type: functional
Mus musculus [10] = species: Mus musculus; test: Inhibition of cumulative food intake by fasted DIO mice at 24 hours; type: functional

T1 sequence (Q99705 whole entry): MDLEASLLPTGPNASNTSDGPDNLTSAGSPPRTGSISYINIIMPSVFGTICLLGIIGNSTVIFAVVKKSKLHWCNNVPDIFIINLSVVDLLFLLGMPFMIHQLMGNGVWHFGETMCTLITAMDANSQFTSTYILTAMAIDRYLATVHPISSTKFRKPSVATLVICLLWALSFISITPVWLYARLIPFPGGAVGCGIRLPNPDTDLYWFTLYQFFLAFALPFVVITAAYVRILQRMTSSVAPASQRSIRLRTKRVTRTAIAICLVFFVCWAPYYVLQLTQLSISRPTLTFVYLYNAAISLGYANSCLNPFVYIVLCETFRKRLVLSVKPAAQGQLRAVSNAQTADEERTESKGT
Sequence of Melanin-concentrating hormone receptor 2 (Homo sapiens) (Q969V1 whole entry): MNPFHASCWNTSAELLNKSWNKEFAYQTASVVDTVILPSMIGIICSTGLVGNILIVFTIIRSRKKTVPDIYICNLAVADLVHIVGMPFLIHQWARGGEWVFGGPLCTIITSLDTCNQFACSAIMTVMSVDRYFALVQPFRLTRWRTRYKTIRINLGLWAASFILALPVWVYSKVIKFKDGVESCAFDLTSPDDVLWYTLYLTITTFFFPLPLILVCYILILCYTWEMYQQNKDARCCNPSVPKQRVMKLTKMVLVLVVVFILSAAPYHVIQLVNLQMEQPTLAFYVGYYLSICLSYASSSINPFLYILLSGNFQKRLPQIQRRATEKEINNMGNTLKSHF

## CO/N=C/c1cccc([C@]23CC[C@@H](N(CCCN4CCN(C)CC4)c4nc5cc(F)c(F)cc5[nH]4)C[C@H]2C3)c1
[1]
  Ki: 28.2 nM
[2]
  inhibition: inactive

## CN1CCN(CCCN(c2nc3cc(F)c(F)cc3[nH]2)[C@@H]2CC[C@]3(c4cccc(CN5CC[C@H](O)C5)c4)C[C@@H]3C2)CC1
[1]
  Ki: 441 nM
[2]
  inhibition: inactive

## CN1CCN(CCCN(c2nc3cc(F)c(F)cc3[nH]2)[C@@H]2CC[C@]3(c4cccc(C#N)c4)C[C@H]23)CC1
[1]
  Ki: 20.7 nM
[2]
  inhibition: inactive
Mus musculus [3]
  inhibition in vivo at 30 mg/kg: 75%
Mus musculus [4]
  inhibition in vivo at 30 mg/kg: 33%
[5]
  AUC: 1490 ng·h/mL

## CN1CCN(CCCN(c2nc3cc(Cl)c(F)cc3[nH]2)[C@@H]2CC[C@]3(c4cccc(C#N)c4)C[C@H]23)CC1
[1]
  Ki: 5.6 nM
[5]
  AUC: 1920 ng·h/mL

## CN1CCN(CCCN(c2nc3cc(F)c(Cl)cc3[nH]2)[C@@H]2CC[C@]3(c4cccc(C#N)c4)C[C@H]23)CC1
[6]
  Kb: 10 nM
[2]
  inhibition: inactive
Mus musculus [3]
  inhibition in vivo at 30 mg/kg: 92%
Mus musculus [4]
  inhibition in vivo at 30 mg/kg: 77%
Mus musculus [7]
  Inhibition: 13%
Mus musculus [8]
  Inhibition: 19%
Mus musculus [9]
  Inhibition: 21%
Mus musculus [10]
  Inhibition: 5%

## CN1CCN(CCCN(c2nc3cc(F)c(C(F)(F)F)cc3[nH]2)[C@@H]2CC[C@]3(c4ccc(C#N)cc4)C[C@H]23)CC1
[1]
  Ki: 8.6 nM
[6]
  Kb: 43 nM
Mus musculus [3]
  inhibition in vivo at 30 mg/kg: 100%
Mus musculus [4]
  inhibition in vivo at 30 mg/kg: 94%
[5]
  AUC: 2800 ng·h/mL

## CN1CCN(CCCN(c2nc3cc(Cl)c(F)cc3[nH]2)[C@@H]2CC[C@]3(c4ccc(C#N)cc4)C[C@H]23)CC1
[1]
  Ki: 4.9 nM

## CN1CCN(CCCN(c2nc3cc(F)c(Cl)cc3[nH]2)[C@@H]2CC[C@]3(c4ccc(C#N)cc4)C[C@H]23)CC1
[2]
  inhibition: inactive
Mus musculus [3]
  inhibition in vivo at 30 mg/kg: 100%
Mus musculus [4]
  inhibition in vivo at 30 mg/kg: 81%

## CN1CCN(CCCN(c2nc3cc(Cl)c(Cl)cc3[nH]2)[C@@H]2CC[C@]3(c4cccc(C#N)c4)C[C@H]23)CC1
[1]
  Ki: 6.8 nM
[6]
  Kb: 20 nM
[2]
  inhibition: inactive
Mus musculus [3]
  inhibition in vivo at 30 mg/kg: 97%
Mus musculus [4]
  inhibition in vivo at 30 mg/kg: 51%

## CN1CCN(CCCN(c2nc3cc(Cl)c(Cl)cc3[nH]2)[C@@H]2CC[C@]3(c4ccc(C#N)cc4)C[C@H]23)CC1
[1]
  Ki: 11.4 nM
[2]
  inhibition: inactive

## CN1CCN(CCCN(c2nc3cc(F)c(F)cc3[nH]2)[C@@H]2CC[C@]3(c4cccc(CN5CCC[C@H]5CO)c4)C[C@@H]3C2)CC1
[2]
  inhibition: inactive

## CN1CCN(CCCN(c2nc3cc(F)c(F)cc3[nH]2)[C@@H]2CCC3(c4cccc(C=O)c4)C[C@@H]3C2)CC1 (single isomer, unassigned)
[1]
  Ki: 16.3 nM
[2]
  inhibition: inactive

## CN1CCN(CCCN(c2nc3cc(Cl)c(Cl)cc3[nH]2)[C@@H]2CCC3(c4cccc(C#N)c4)C[C@@H]3C2)CC1 (single isomer, unassigned)
[2]
  inhibition: inactive
Mus musculus [3]
  inhibition in vivo at 30 mg/kg: 81%
Mus musculus [4]
  inhibition in vivo at 30 mg/kg: 97%
Mus musculus [7]
  Inhibition: 12%
Mus musculus [8]
  Inhibition: 19%
Mus musculus [9]
  Inhibition: 18%
Mus musculus [10]
  Inhibition: 9%
[5]
  AUC: 965 ng·h/mL

## CN1CCN(CCCN(c2nc3cc(Cl)c(Cl)cc3[nH]2)[C@@H]2CCC3(c4cccc(C=O)c4)C[C@@H]3C2)CC1 (single isomer, unassigned)
[1]
  Ki: 13.7 nM
[2]
  inhibition: inactive

## CN(C)Cc1cccc(C23CC[C@@H](N(CCCN4CCN(C)CC4)c4nc5cc(F)c(F)cc5[nH]4)C[C@H]2C3)c1 (single isomer, unassigned)
[1]
  Ki: 328 nM
[2]
  inhibition: inactive

## CN1CCN(CCCN(c2nc3cc(F)c(F)cc3[nH]2)[C@@H]2CCC3(c4cccc(C#N)c4)C[C@@H]3C2)CC1 (single isomer, unassigned)
[2]
  inhibition: inactive
Mus musculus [3]
  inhibition in vivo at 30 mg/kg: 37%
Mus musculus [4]
  inhibition in vivo at 30 mg/kg: 17%
[5]
  AUC: 293 ng·h/mL

## CS(=O)(=O)N1CCC(CN(c2nc3cc(F)c(Cl)cc3[nH]2)[C@@H]2CCC3(c4cccc(C#N)c4)C[C@@H]3C2)CC1 (single isomer, unassigned)
[1]
  Ki: 6.7 nM
[2]
  inhibition: inactive

## CS(=O)(=O)N1CCC(CN(c2nc3cc(F)c(F)cc3[nH]2)[C@@H]2CCC3(c4cccc(C#N)c4)C[C@@H]3C2)CC1 (single isomer, unassigned)
[1]
  Ki: 27 nM
[2]
  inhibition: inactive
Mus musculus [3]
  inhibition in vivo at 30 mg/kg: 0%
Mus musculus [4]
  inhibition in vivo at 30 mg/kg: 0%
[5]
  AUC: 350 ng·h/mL

## CS(=O)(=O)N1CCC(CN(c2nc3cc(Cl)c(Cl)cc3[nH]2)[C@@H]2CCC3(c4cccc(C#N)c4)C[C@@H]3C2)CC1 (single isomer, unassigned)
[1]
  Ki: 1.5 nM
[2]
  inhibition: inactive
Mus musculus [3]
  inhibition in vivo at 30 mg/kg: 12%
Mus musculus [4]
  inhibition in vivo at 30 mg/kg: 0%

## CN1CCN(CCCN(c2nc3cc(F)c(F)cc3[nH]2)[C@@H]2CCC3(c4cccc(CN5CCOCC5)c4)C[C@@H]3C2)CC1 (single isomer, unassigned)
[1]
  Ki: 21.3 nM
[2]
  inhibition: inactive

## CN1CCN(CCCN(c2nc3cc(Cl)c(F)cc3[nH]2)[C@@H]2CCC3(c4cccc(C#N)c4)C[C@@H]3C2)CC1 (single isomer, unassigned)
[1]
  Ki: 6.2 nM
[2]
  inhibition: inactive

## CN(C)Cc1cccc(C23CC[C@@H](N(CCCN4CCN(C)CC4)c4nc5cc(Cl)c(Cl)cc5[nH]4)C[C@H]2C3)c1 (single isomer, unassigned)
[1]
  Ki: 4.9 nM
[2]
  inhibition: inactive

## CN1CCN(CCCN(c2nc3cc(F)c(F)cc3[nH]2)[C@@H]2CCC3(c4cccc(CN5CCCC5)c4)C[C@@H]3C2)CC1 (single isomer, unassigned)
[1]
  Ki: 25.7 nM
[2]
  inhibition: inactive

## CN1CCN(CCCN(c2nc3cc(Cl)c(Cl)cc3[nH]2)[C@@H]2CCC3(c4cccc(CN5CCOCC5)c4)C[C@@H]3C2)CC1 (single isomer, unassigned)
[1]
  Ki: 14.2 nM
[2]
  inhibition: inactive

## CC(C)(C)OC(=O)N1CCC(CN(c2nc3cc(Cl)c(Cl)cc3[nH]2)[C@@H]2CCC3(c4cccc(C#N)c4)C[C@@H]3C2)CC1 (single isomer, unassigned)
[1]
  Ki: 1140 nM
[2]
  inhibition: inactive

## CN1CCN(CCCN(c2nc3cc(F)c(F)cc3[nH]2)[C@@H]2CCC3(c4cccc(CN5CCCCC5)c4)C[C@@H]3C2)CC1 (single isomer, unassigned)
[2]
  inhibition: inactive

## CN1CCN(CCCN(c2nc3cc(F)c(F)cc3[nH]2)[C@@H]2CCC3(c4cccc(CN5CCN(C)CC5)c4)C[C@@H]3C2)CC1 (single isomer, unassigned)
[2]
  inhibition: inactive

## CN1CCN(CCCN(c2nc3cc(F)c(F)cc3[nH]2)[C@@H]2CCC3(c4cccc(CO)c4)C[C@@H]3C2)CC1 (single isomer, unassigned)
[2]
  inhibition: inactive
